Earlier results, collected in patent publication US20090018107A1, “NOVEL COMPOSITION TO INCREASE MUSCLE STRENGTH” (ORAL DELIVERY TECHNOLOGY LTD., priority 2007, published 2009).

Assays:
[1] = U.S. Pat. No. 6,989,378
[2] = U.S. Pat. No. 5,880,117

CCCCCCCCCCC(=O)O[C@H]1CC[C@H]2[C@H]3[C@H](CC[C@]12C)[C@H]1CCC(=O)C=C1C[C@H]3C [MENT undecanoate, (7α,17β)-7-methyl-17-[(1-ox-oundecyl)oxy]estr-4-en-3one]
Solubility in oily media [1]: good solubility

C[C@]12CC[C@H]3[C@@H](CCC4=C[C@@H](O)CC[C@@]43C)[C@@H]1CC[C@@H]2O [4-androstene-3β,17β-diol]
Period of decline after the peak [2]: 3 to 4 h
Time to peak concentration after administration [2]: ≤ 90 min
